ChEMBL document CHEMBL1201862, “PubChem BioAssay data set” (2004)
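These data come from cells grown in 96-well plates and exposed to compound for 48 hours at five concentrations. GI50 marks 50% less growth.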 Calls of active or inactive are those of the source. Cut-off read from the data, not from the text of the source: active = GI50 up to about 1.1 µM and inactive = higher.

How the values were obtained:
Assay in all cases: inhibition of tumour cell growth, NCI panel, 48 h
[1] = test system: SR
[2] = test system: EKVX
[3] = test system: MDA-MB-435
[4] = test system: A498
[5] = test system: RXF 393
[6] = test system: OVCAR-4
[7] = test system: Hs-578T
[8] = test system: MDA-N
[9] = test system: NCI-H460
[10] = test system: HCT-116
[11] = test system: KM12
[12] = test system: CAKI-1
[13] = test system: SK-MEL-5
[14] = test system: HCC 2998
[15] = test system: SF-268
[16] = test system: 786-0
[17] = test system: HCT-15
[18] = test system: RPMI-8226
[19] = test system: MOLT-4
[20] = test system: COLO 205
[21] = test system: NCI-H23
[22] = test system: CCRF-CEM
[23] = test system: M14
[24] = test system: A549
[25] = test system: PC-3
[26] = test system: U-251
[27] = test system: ACHN
[28] = test system: UACC-62
[29] = test system: IGROV-1
[30] = test system: DU-145
[31] = test system: LOX IMVI
[32] = test system: SF-295
[33] = test system: SW-620
[34] = test system: K562
[35] = test system: SN12C
[36] = test system: SNB-19
[37] = test system: SK-MEL-28
[38] = test system: UACC-257
[39] = test system: UO-31
[40] = test system: T47D
[41] = test system: HOP-62
[42] = test system: SK-MEL-2
[43] = test system: MCF7
[44] = test system: SF-539
[45] = test system: NCI/ADR-RES
[46] = test system: NCI-H226
[47] = test system: Malme-3M
[48] = test system: HT-29
[49] = test system: OVCAR-5
[50] = test system: SNB-75
[51] = test system: MDA-MB-231
[52] = test system: TK-10
[53] = test system: HL-60
[54] = test system: NCI-H522
[55] = test system: OVCAR-8

For O=c1c(Nc2ccccc2)cn(CCOc2ccc(Cl)cc2)c(=O)n1CCOc1ccc(Cl)cc1, the GI50 [1] was 96.2 µM (inactive), the GI50 [2] was 55.7 µM (inactive) and the GI50 [3] was 39.1 µM (inactive). For the same compound, the GI50 [4] was > 100 µM (inactive), the GI50 [5] was 36.4 µM (inactive) and the GI50 [6] was 26.7 µM (inactive). The GI50 [7] was 60 µM (inactive), the GI50 [8] was > 100 µM (inactive) and the GI50 [9] was > 100 µM (inactive). The GI50 [10] was > 100 µM (inactive), the GI50 [11] was > 100 µM (inactive) and the GI50 [12] was > 100 µM (inactive). The GI50 [13] was 75.2 µM (inactive), the GI50 [14] was 22.2 µM (inactive) and the GI50 [15] was 89.9 µM (inactive). For the same compound, the GI50 [16] was 28.1 µM (inactive), the GI50 [17] was greater than 100 µM and the GI50 [18] was > 100 µM (inactive). For the same compound, the GI50 [19] was > 100 µM (inactive), the GI50 [20] was > 100 µM (inactive) and the GI50 [21] was > 100 µM (inactive). The GI50 [22] was 64 µM (inactive), the GI50 [23] was 60.3 µM (inactive) and the GI50 [24] was > 100 µM (inactive). For the same compound, the GI50 [25] was 41.1 µM (inactive), the GI50 [26] was > 100 µM (inactive) and the GI50 [27] was > 100 µM (inactive). For the same compound, the GI50 [28] was > 100 µM (inactive), the GI50 [29] was > 100 µM (inactive) and the GI50 [30] was 75.2 µM (inactive). The GI50 [31] was > 100 µM (inactive), the GI50 [32] was > 100 µM (inactive) and the GI50 [33] was > 100 µM (inactive). For the same compound, the GI50 [34] was > 100 µM (inactive), the GI50 [35] was > 100 µM (inactive) and the GI50 [36] was > 100 µM (inactive). The GI50 [37] was > 100 µM (inactive), the GI50 [38] was > 100 µM (inactive) and the GI50 [39] was 51.9 µM (inactive).

For O=C1c2ccccc2-c2ccc(O)cc21, the GI50 [1] was 12 µM (inactive), the GI50 [2] was 16.4 µM (inactive) and the GI50 [3] was 20.2 µM (inactive). The GI50 [40] was 18.4 µM (inactive), the GI50 [4] was 21.5 µM (inactive) and the GI50 [5] was 10.4 µM (inactive). The GI50 [41] was 36.4 µM (inactive), the GI50 [6] was 20.7 µM (inactive) and the GI50 [42] was 21.5 µM (inactive). For the same compound, the GI50 [7] was 33.6 µM (inactive), the GI50 [43] was 21.2 µM (inactive) and the GI50 [9] was 20.1 µM (inactive). For the same compound, the GI50 [44] was 22.9 µM (inactive), the GI50 [45] was 31.8 µM (inactive) and the GI50 [10] was 45.6 µM (inactive). The GI50 [11] was 16.8 µM (inactive), the GI50 [12] was 14.8 µM (inactive) and the GI50 [13] was 19.4 µM (inactive). The GI50 [46] was 26.3 µM (inactive), the GI50 [15] was 19.1 µM (inactive) and the GI50 [16] was 36.1 µM (inactive). For the same compound, the GI50 [47] was 23.4 µM (inactive), the GI50 [17] was 21.6 µM and the GI50 [18] was 39 µM (inactive). For the same compound, the GI50 [48] was 30.7 µM (inactive), the GI50 [19] was 16.1 µM (inactive) and the GI50 [20] was 19.7 µM (inactive). For the same compound, the GI50 [21] was 16.9 µM (inactive), the GI50 [23] was 26.1 µM (inactive) and the GI50 [24] was 25.9 µM (inactive). The GI50 [49] was 26.7 µM (inactive), the GI50 [50] was 29 µM (inactive) and the GI50 [25] was 17.2 µM (inactive). For the same compound, the GI50 [26] was 26.7 µM (inactive), the GI50 [27] was 16.6 µM (inactive) and the GI50 [51] was 16.9 µM (inactive). For the same compound, the GI50 [28] was 15.3 µM (inactive), the GI50 [52] was 24.5 µM (inactive) and the GI50 [29] was 18.6 µM (inactive). The GI50 [30] was 20.1 µM (inactive), the GI50 [31] was 40.1 µM (inactive) and the GI50 [53] was 23.2 µM (inactive). For the same compound, the GI50 [54] was 16.1 µM (inactive), the GI50 [32] was 22.9 µM (inactive) and the GI50 [33] was 42.3 µM (inactive). For the same compound, the GI50 [34] was 31.4 µM (inactive), the GI50 [35] was 15.7 µM (inactive) and the GI50 [36] was 23.9 µM (inactive). For the same compound, the GI50 [55] was 20.2 µM (inactive), the GI50 [37] was 19.7 µM (inactive) and the GI50 [38] was 19.6 µM (inactive). For the same compound, the GI50 [39] was 17.2 µM (inactive).
